According to patent publication US7388004B2, “Acid-group-substituted diphenylazetidinones, process for their preparation, medicaments comprising these compounds, and their use” (Sanofi-Aventis Deutschland GmbH, priority 2002, dated 2008):

Tested on: cholesterol absorption (uptake of 14C-cholesterol by the liver)
Assay: Cholesterol absorption test: uptake of 14C-cholesterol by the liver after peroral test meal
Type: in vivo, NMRI mice
Settings: dose at which uptake of 14C-cholesterol by the liver was halved (50%) vs control group, mouse
From the text: Effect of the compounds of the invention on cholesterol absorption and 3H-taurocholic acid excretion using fecal excrement of mice, rats or hamsters
NMRI mice, Wistar rats, or Golden Syrian hamsters (in groups of n=4-6) were kept in metabolic cages, where they were fed with a standard diet (Altromin, Lage (Lippe)). The afternoon prior to the administration of the radioactive tracers (14C-cholesterol), the feed was removed and the animals were adapted to grates.
Additionally, the animals were labeled s.c. with 3H-TCA (taurocholic acid) (for example 1 μCi/mouse up to 5 μCi/rat) 24 hours prior to the peroral administration of the test meal (14C-cholesterol in Intralipid® 20, Pharmacia-Upjohn).
Cholesterol absorption test: 0.25 ml/mouse Intralipid®D 20 (Pharmacia-Upjohn) ((spiked with 0.25 μCi of 14C-cholesterol in 0.1 mg of cholesterol) was administered perorally by gavage.
Test substances were prepared separately in 0.5% methylcellulose (Sigma)/5% Solutol (BASF, Ludwigshafen) or a suitable vehicle.
The administration volume of the test substance was 0.5 ml/mouse. The test substance was administered immediately prior to the test meal (Intralipid labeled with 14C-cholesterol) (cholesterol absorption test).
The feces were collected over a period of 24 h. Fecal elimination of 14C-cholesterol and 3H-taurocholic acid (TCA) was determined after 24 hours.
The livers were removed and homogenized, and aliquots were incinerated in an oximate (Model 307, Packard) to determine the amount of 14C-cholesterol that had been taken up/absorbed.
The amount of-14C-cholesterol taken up by the liver was based on the administered dose. The ED50 values were interpolated from a dose-effect curve as the dose at which the uptake of 14C-cholesterol by the liver was halved (50%), based on a control group.

| SMILES | ED50 (liver) [mg/mouse] |
| --- | --- |
| COc1ccc(C2C(CCC(O)c3ccc(F)cc3)C(=O)N2c2ccc(CNC(=O)CCCCCCCCCCC(=O)O)cc2)cc1 (stereo not shown) [XIII, 11-{4-[3-[3-(4-Fluorophenyl)-3-hydroxypropyl]-2-(4-methoxyphenyl)-4-oxoazetidin-1-yl]benzylcarbamoyl}undecanoic acid] | <0.1 |
| O=C(CS(=O)(=O)O)NCc1ccc(C2C(CCC(O)c3ccc(F)cc3)C(=O)N2c2ccc(F)cc2)cc1 (stereo not shown) [VIII, (4-{1-(4-Fluorophenyl)-3-[3-(4-fluorophenyl)-3-hydroxypropyl]-4-oxoazetidin-2-yl}benzylcarbamoyl)methanesulfonic acid] | 0.3 |
| COc1ccc(C2C(CCC(O)c3ccc(F)cc3)C(=O)N2c2ccc(OCCCCN(C)CCS(=O)(=O)O)cc2)cc1 (stereo not shown) [II, 2-[(4-{4-[3-[3-(4-Fluorophenyl)-3-hydroxypropyl]-2-(4-methoxyphenyl)-4-oxoazetidin-1-yl]phenoxy}butyl)methylamino]ethylsulfonic acid] | >0.1 |
| COc1ccc(C2C(CCC(O)c3ccc(F)cc3)C(=O)N2c2ccc(CNCCCCS(=O)(=O)O)cc2)cc1 (stereo not shown) [I, 4-{4-[3-[3-(4-Fluorophenyl)-3-hydroxypropyl]-2-(4-methoxyphenyl)-4-oxoazetidin-1-yl]benzylamino}butane-1-sulfonic acid] | 1.0 |
| COc1ccc(C2C(CCC(O)c3ccc(F)cc3)C(=O)N2c2ccc(CNC(=O)CS(=O)(=O)O)cc2)cc1 (stereo not shown) [IX, {4-[3-[3-(4-Fluorophenyl)-3-hydroxypropyl]-2-(4-methoxyphenyl)-4-oxoazetidin-1-yl]benzylcarbamoyl}methanesulfonic acid] | <1.0 |
| O=C1C(CCC(O)c2ccc(F)cc2)C(c2ccc(OCCCCNCCCCCCOP(=O)(O)O)cc2)N1c1ccc(F)cc1 (stereo not shown) [IV, Phosphoric acid mono{6-[4-(4-{1-(4-fluorophenyl)-3-[3-(4-fluorofluorophenyl)-3-hydroxypropyl]-4-oxoazetidin-2-yl}phenoxy)butylamino]hexyl}ester] | 0.3 |
| O=C(O)CCC(=O)NCc1ccc(C2C(CCC(O)c3ccc(F)cc3)C(=O)N2c2ccc(F)cc2)cc1 (stereo not shown) [X, N-(4-{1-(4-Fluorophenyl)-3-[3-(4-fluorophenyl)-3-hydroxypropyl]-4-oxoazetidin-2-yl}benzyl)succinaminic acid] | <1.0 |
